Legend:
[1] = target: T1, glucocorticoid receptor (GR) (Homo sapiens, UniProt P04150); test: Binding to the glucocorticoid receptor, recombinantly produced receptor, cytosol preparations of Sf9 cells; conditions: reference substance [3H]-dexamethasone
T1 construct: made in house; host or cells: Sf9 cells infected with recombinant baculovirus (cytosol preparation)
T1 sequence (P04150 1-777): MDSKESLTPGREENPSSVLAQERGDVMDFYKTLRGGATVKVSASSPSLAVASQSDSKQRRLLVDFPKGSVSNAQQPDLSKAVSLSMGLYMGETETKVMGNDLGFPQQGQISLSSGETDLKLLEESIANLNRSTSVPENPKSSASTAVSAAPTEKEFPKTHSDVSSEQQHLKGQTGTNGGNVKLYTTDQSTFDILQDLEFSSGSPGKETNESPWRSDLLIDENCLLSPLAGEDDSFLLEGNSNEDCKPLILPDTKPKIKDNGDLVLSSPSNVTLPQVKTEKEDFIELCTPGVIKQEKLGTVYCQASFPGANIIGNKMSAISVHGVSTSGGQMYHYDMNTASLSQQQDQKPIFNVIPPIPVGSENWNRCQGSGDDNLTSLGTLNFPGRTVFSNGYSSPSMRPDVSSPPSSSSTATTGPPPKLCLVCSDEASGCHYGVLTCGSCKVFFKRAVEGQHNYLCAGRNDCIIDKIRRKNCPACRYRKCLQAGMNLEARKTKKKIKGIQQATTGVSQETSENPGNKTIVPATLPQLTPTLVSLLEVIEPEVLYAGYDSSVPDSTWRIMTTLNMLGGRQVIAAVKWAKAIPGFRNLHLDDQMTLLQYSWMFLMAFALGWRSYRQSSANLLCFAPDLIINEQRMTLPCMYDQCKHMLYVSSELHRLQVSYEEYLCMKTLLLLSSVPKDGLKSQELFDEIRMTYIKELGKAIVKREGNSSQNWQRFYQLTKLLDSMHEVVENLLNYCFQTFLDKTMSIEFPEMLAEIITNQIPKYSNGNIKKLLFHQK
From the text: (§1) The binding of the substances to the glucocorticoid receptor (GR) and other steroid-hormone receptors (mineral corticoid receptor (MR), progesterone receptor (PR) and androgen receptor (AR)) is examined with the aid of recombinantly produced receptors. Cytosol preparations of Sf9 cells, which had been infected with recombinant baculoviruses that code for the GR, are used for the binding studies. In comparison to the reference substance [^3H]-dexamethasone, the substances show a high affinity to the GR.

[2] = target: T2, progesterone receptor (PR) (Homo sapiens, UniProt P06401); test: Binding to the progesterone receptor, recombinantly produced receptor
T2 construct: made in house
T2 sequence (P06401 1-933): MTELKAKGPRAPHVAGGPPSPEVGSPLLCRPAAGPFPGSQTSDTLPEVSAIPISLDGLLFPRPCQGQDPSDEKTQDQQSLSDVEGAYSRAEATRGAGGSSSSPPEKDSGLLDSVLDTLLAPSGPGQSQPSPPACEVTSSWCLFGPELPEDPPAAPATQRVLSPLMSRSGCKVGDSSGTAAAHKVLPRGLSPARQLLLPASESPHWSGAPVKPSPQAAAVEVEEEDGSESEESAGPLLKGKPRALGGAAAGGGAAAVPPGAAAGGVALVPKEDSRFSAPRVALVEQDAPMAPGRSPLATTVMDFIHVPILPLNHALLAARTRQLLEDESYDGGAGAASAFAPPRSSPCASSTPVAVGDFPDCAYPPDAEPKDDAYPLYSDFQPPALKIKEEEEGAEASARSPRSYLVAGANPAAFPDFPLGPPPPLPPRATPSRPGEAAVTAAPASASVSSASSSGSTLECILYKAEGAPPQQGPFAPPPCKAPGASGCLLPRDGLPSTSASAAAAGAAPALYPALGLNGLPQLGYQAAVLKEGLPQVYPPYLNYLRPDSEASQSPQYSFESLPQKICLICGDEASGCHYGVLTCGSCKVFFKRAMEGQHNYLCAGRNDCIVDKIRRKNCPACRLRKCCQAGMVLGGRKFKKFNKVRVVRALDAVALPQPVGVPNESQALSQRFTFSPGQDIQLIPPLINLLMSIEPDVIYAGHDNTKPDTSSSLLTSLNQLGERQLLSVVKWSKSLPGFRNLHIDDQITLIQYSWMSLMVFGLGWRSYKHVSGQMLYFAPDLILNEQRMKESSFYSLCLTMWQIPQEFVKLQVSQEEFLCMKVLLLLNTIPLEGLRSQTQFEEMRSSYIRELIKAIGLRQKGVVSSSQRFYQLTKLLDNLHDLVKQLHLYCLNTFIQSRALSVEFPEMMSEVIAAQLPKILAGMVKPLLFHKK
From the text: as §1

[3] = tested on: secretion of cytokine IL-8 in the human monocyte cell line THP-1; test: Inhibition of LPS-triggered secretion of cytokine IL-8 in THP-1 cells (ELISA); assay type: cell-based; conditions: THP-1, supernatant ELISA, read-out: IC50(IL8)
Method: The concentration of the cytokines was determined in the supernatant by means of commercially available ELISA kits.

Compound | melting point | other results
CC1(C)CC(O)(C(F)(F)F)C(Nc2cccc3[nH]ncc23)c2c(F)ccc(F)c21 (racemic) [Example 105, Rac.-5,8-Difluoro-1-[(1H-indazol-4-yl)amino]-4,4-dimethyl-2-(trifluoromethyl)-1,2,3,4-tetrahydronaphthalen-2-ol] | 209 to 221 °C | 
CC1(C)CC(O)(C(F)(F)F)C(Nc2cccc3[nH]ncc23)c2cc(F)cc(O)c21 (centres unmarked) [Example 49, 7-Fluoro-1-[(1H-indazol-4-yl)amino]-4,4-dimethyl-2-(trifluoromethyl)-1,2,3,4-tetrahydronaphthalene-2,5-diol] |  | IC50 [1]: 95 nM; IC50 [2]: 460 nM; IC50 [3]: 19 nM
COc1ccc2c(c1)C(Nc1ccc(F)c3nc(C)ncc13)C(O)(C(F)(F)F)CC2(C)C (centres unmarked) [Example 135, 1-(8-Fluoro-2-methylquinazolin-5-ylamino)-7-methoxy-4,4-dimethyl-2-(trifluoromethyl)-1,2,3,4-tetrahydronaphthalen-2-ol] | 97 °C | 
COc1cccc2c1CCC(O)(C(F)(F)F)C2Nc1cccc2[nH]c(=O)ccc12 (centres unmarked) [Example 144, 5-(2-Hydroxy-5-methoxy-2-(trifluoromethyl)-1,2,3,4-tetrahydronaphthalen-1-ylamino)-1H-quinolin-2-one] | 228 °C | 
COc1cccc2c1CCC(O)(C(F)(F)F)C2Nc1ccc(F)c2nc(C)ncc12 (centres unmarked) [Example 145, 1-(8-Fluoro-2-methylquinazolin-5-ylamino)-5-methoxy-2-(trifluoromethyl)-1,2,3,4-tetrahydro-naphthalen-2-ol] | 132 °C | 

Continued, in another order:

melting point | Compound | other results
158 °C | CC1(C)CC(O)(C(F)(F)F)C(Nc2cccc3[nH]c(=O)ccc23)c2cc(O)c(Cl)cc21 (centres unmarked) [Example 134, 5-(6-Chloro-2,7-dihydroxy-4,4-dimethyl-2-(trifluoromethyl)-1,2,3,4-tetrahydronaphthalen-1-ylamino)-1H-quinolin-2-one] | 
128 °C | COc1ccc2c(c1)C(Nc1cccc3[nH]c(=O)ccc13)C(O)(C(F)(F)F)CC2(C)C (centres unmarked) [Example 136, 5-(2-Hydroxy-7-methoxy-4,4-dimethyl-2-(trifluoromethyl)-1,2,3,4-tetrahydronaphthalen-1-ylamino)-1H-quinolin-2-one] | 
112 °C | COc1ccc2c(c1)C(Nc1cccc3c(=O)[nH]ccc13)C(O)(C(F)(F)F)CC2(C)C (centres unmarked) [Example 137, 5-(2-Hydroxy-7-methoxy-4,4-dimethyl-2-(trifluoromethyl)-1,2,3,4-tetrahydronaphthalen-1-ylamino)-2H-isoquinolin-1-one] | 
197 °C | COc1ccc2c(c1)C(Nc1cccc3c(=O)[nH]ncc13)C(O)(C(F)(F)F)CC2(C)C (centres unmarked) [Example 138, 5-(2-Hydroxy-7-methoxy-4,4-dimethyl-2-(trifluoromethyl)-1,2,3,4-tetrahydronaphthalen-1-ylamino)-2H-phthalazin-1-one] | 
85 °C | COc1ccc2c(c1)C(Nc1cccc3nc(C)ccc13)C(O)(C(F)(F)F)CC2(C)C (centres unmarked) [Example 139, 7-Methoxy-4,4-dimethyl-1-(2-methylquinolin-5-ylamino)-2-(trifluoromethyl)-1,2,3,4-tetrahydronaphthalen-2-ol] | 
127 °C | Cc1ccc2c(NC3c4cc(O)ccc4C(C)(C)CC3(O)C(F)(F)F)cccc2n1 (centres unmarked) [Example 140, 4,4-Dimethyl-1-(2-methylquinolin-5-ylamino)-2-(trifluoromethyl)-1,2,3,4-tetrahydronaphthalene-2,7-diol] | 
116 °C | CC1(C)CC(O)(C(F)(F)F)C(Nc2cccc3c(=O)[nH]ncc23)c2cc(O)ccc21 (centres unmarked) [Example 141, 5-(2,7-Dihydroxy-4,4-dimethyl-2-(trifluoromethyl)-1,2,3,4-tetrahydronaphthalen-1-ylamino)-2H-phthalazin-1-one] | 

— patent US7638515B2, “Tetrahydronaphthalene derivatives, process for their production and their use as anti-inflammatory agents” (Bayer Schering Pharma Aktiengesellschaft, priority 2003, dated 2009)
